Data set [1] deals with HCT-116. As to the kind of experiment: Potency index, ratio of GSK3368715 IC50 to test compound IC50 for antiproliferative activity against human HCT-116 cells assessed as inhibition of cell growth by CCK-8 assay. The format is functional.
Data set [2] has as its system HCT-116. As to the kind of experiment: Antiproliferative activity against human HCT-116 cells assessed as inhibition of cell growth by CCK-8 assay. Type of data set: functional, cell-based. (In general: Tetrazolium dyes change colour on reduction, which living cells bring about.)
A short description of data set [3]: in vitro. As to conditions: mouse, liver microsomes.
Description: Metabolic stability in mouse liver microsomes assessed as half life by LC-MS/MS analysis
The target of data set [4] is T1, Protein arginine N-methyltransferase 6 (Homo sapiens, UniProt Q96LA8). As to the kind of experiment: Inhibition of PRMT6 (unknown origin) by AlphaLISA assay. A general note: Bead proximity is the source of the signal in Alpha formats.
Data set [5] addresses Protein arginine N-methyltransferase 3 (Homo sapiens, UniProt O60678). Description: Inhibition of PRMT3 (unknown origin) by AlphaLISA assay.
Data set [6] deals with T2, Histone-arginine methyltransferase CARM1 (Homo sapiens, UniProt Q86X55).
T2 sequence (Q86X55 whole entry): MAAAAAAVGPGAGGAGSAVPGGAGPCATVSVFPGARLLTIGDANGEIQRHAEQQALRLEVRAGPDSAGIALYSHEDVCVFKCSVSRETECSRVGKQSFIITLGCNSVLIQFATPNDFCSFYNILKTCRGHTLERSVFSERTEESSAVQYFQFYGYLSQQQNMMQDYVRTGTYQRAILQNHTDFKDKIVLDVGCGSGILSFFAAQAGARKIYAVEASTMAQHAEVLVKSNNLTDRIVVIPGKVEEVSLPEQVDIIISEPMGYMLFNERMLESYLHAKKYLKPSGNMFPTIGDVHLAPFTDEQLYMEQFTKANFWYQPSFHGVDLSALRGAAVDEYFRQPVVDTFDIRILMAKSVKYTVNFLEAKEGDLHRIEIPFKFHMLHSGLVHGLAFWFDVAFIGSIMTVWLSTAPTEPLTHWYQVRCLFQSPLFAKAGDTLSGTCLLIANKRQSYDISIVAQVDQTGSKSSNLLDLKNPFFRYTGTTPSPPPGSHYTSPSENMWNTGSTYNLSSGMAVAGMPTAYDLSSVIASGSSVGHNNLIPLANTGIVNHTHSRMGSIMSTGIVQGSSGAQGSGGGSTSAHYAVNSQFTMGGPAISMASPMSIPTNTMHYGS
Description: Inhibition of CARM1 (unknown origin) using histone H3 (21 to 44 residues) and SAM as substrates by AlphaLISA assay.

Data set [7] in a line: in vitro. As to conditions: mouse, liver microsomes. This is another data set of the same source.
Description: Metabolic stability in mouse liver microsomes assessed as intrinsic clearance by LC-MS/MS analysis
Data set [8] can be described thus: in vitro. As to conditions: mouse, liver microsomes. This is another data set of the same source.
Description: Metabolic stability in mouse liver microsomes assessed as microsomal intrinsic clearance by LC-MS/MS analysis
Data set [9] deals with T3, Protein arginine N-methyltransferase 8 (Homo sapiens, UniProt Q9NR22). Description: Inhibition of PRMT8 (unknown origin) by AlphaLISA assay.
In data set [10] the target is Protein arginine N-methyltransferase 1 (Homo sapiens, UniProt Q99873). As to the kind of experiment: Inhibition of PRMT1 (unknown origin) by AlphaLISA assay.
Data set [11] deals with Protein arginine N-methyltransferase 5 (Homo sapiens, UniProt O14744). Description: Inhibition of PRMT5 (unknown origin) by AlphaLISA assay.
Data set [12] has as its system HCT-116. Description: Induction of apoptosis in human HCT-116 cells assessed as late apoptotic cells at 0.63 uM measured after 72 hrs by Annexin V-FITC/PI staining based flow cytometry analysis (reference value: 1.53%). Type of data set: functional. Background: Flow cytometry measures light scatter and fluorescence of single cells or particles in a stream.
Data set [13] concerns HCT-116. As to the kind of experiment: Induction of apoptosis in human HCT-116 cells assessed as dead cells at 0.63 uM measured after 72 hrs by Annexin V-FITC/PI staining based flow cytometry analysis (reference value: 1.07%). Type of data set: functional.
For data set [14], the system named is HCT-116. Description: Induction of apoptosis in human HCT-116 cells assessed as dead cells at 2.5 uM measured after 72 hrs by Annexin V-FITC/PI staining based flow cytometry analysis (reference value: 1.07%). Type of data set: functional.
In data set [15] the test system is HCT-116. Description: Induction of apoptosis in human HCT-116 cells assessed as late apoptotic cells at 5 uM measured after 72 hrs by Annexin V-FITC/PI staining based flow cytometry analysis (reference value: 1.53%). Type of data set: functional.
The test system of data set [16] is HCT-116. Description: Induction of apoptosis in human HCT-116 cells assessed as late apoptotic cells at 1.25 uM measured after 72 hrs by Annexin V-FITC/PI staining based flow cytometry analysis (reference value: 1.53%). The format is functional.
The subject of data set [17] is HCT-116. Description: Induction of apoptosis in human HCT-116 cells assessed as dead cells at 1.25 uM measured after 72 hrs by Annexin V-FITC/PI staining based flow cytometry analysis (reference value: 1.07%). Type of data set: functional.
Data set [18] deals with HCT-116. As to the kind of experiment: Induction of apoptosis in human HCT-116 cells assessed as dead cells at 5 uM measured after 72 hrs by Annexin V-FITC/PI staining based flow cytometry analysis (reference value: 1.07%). The format is functional.
The test system of data set [19] is HCT-116. Description: Induction of apoptosis in human HCT-116 cells assessed as late apoptotic cells at 2.5 uM measured after 72 hrs by Annexin V-FITC/PI staining based flow cytometry analysis (reference value: 1.53%). The format is functional.
Data set [20] has as its target T2, Histone-arginine methyltransferase CARM1. Description: Inhibition of N-terminal FLAG tagged human PRMT4 (2 to end residues) expressed in FreeStyle 293-F cells using SAM and rHistone H3.1 as substrate preincubated for 60 mins followed by substrate addition and measured after 40 mins by Topcount reader based analysis.
Data set [21] concerns the target T1, Protein arginine N-methyltransferase 6. As to the kind of experiment: Inhibition of N-terminal His tagged human recombinant PRMT6 (2 to 375 residues) expressed in Escherichia coli using SAM and Histone (1 to 21 residues) as substrate preincubated for 60 mins followed by substrate addition and measured after 40 mins by Topcount reader based analysis.
The target of data set [22] is T3, Protein arginine N-methyltransferase 8. As to the kind of experiment: Inhibition of PRMT8 (unknown origin) using SAM and Histone (1 to 21 residues) as substrate preincubated for 60 mins followed by substrate addition and measured after 40 mins by Topcount reader based analysis.
Data set [23] concerns the target T2, Histone-arginine methyltransferase CARM1. As to the kind of experiment: Inhibition of CARM1 (unknown origin).

The source of these data is ChEMBL document CHEMBL5506007, “Structure-based discovery of potent CARM1 inhibitors for colorectal cancer therapy” (Eur J Med Chem, 2024).

pIC50: −log10 of the molar value.

Chain of Protein arginine N-methyltransferase 1 (Q99873 whole entry): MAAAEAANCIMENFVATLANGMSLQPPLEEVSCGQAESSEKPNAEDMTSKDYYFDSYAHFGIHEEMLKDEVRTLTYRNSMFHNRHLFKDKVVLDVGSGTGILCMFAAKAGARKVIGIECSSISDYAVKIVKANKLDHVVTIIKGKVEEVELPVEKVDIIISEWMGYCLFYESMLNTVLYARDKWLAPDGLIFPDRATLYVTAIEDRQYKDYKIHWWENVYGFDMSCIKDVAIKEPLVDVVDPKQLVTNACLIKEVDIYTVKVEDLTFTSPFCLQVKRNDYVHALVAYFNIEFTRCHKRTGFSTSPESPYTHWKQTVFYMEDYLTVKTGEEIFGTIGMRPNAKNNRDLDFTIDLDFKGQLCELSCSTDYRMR
T3 sequence (Q9NR22 whole entry): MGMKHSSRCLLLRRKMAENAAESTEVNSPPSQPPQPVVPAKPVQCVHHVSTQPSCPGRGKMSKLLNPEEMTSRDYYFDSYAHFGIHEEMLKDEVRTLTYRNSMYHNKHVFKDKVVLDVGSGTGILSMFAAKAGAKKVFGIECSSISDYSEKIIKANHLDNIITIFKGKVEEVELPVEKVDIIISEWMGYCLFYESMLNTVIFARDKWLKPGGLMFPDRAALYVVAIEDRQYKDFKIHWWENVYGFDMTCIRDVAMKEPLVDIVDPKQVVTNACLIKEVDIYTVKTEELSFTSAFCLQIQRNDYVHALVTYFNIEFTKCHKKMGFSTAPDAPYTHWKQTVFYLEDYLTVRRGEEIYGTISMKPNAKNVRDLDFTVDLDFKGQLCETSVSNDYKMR
T1 sequence (Q96LA8 whole entry): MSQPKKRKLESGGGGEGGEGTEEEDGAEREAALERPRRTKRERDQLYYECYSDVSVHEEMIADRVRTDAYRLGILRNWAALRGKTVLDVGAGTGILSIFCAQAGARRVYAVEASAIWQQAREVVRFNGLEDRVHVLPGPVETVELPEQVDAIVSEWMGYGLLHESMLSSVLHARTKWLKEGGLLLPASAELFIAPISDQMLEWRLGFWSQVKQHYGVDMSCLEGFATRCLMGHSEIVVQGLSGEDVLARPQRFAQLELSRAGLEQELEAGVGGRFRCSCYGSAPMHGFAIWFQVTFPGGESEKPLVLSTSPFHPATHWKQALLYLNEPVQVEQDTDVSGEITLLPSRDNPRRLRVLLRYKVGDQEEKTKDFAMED
Chain of Protein arginine N-methyltransferase 3 (O60678 whole entry): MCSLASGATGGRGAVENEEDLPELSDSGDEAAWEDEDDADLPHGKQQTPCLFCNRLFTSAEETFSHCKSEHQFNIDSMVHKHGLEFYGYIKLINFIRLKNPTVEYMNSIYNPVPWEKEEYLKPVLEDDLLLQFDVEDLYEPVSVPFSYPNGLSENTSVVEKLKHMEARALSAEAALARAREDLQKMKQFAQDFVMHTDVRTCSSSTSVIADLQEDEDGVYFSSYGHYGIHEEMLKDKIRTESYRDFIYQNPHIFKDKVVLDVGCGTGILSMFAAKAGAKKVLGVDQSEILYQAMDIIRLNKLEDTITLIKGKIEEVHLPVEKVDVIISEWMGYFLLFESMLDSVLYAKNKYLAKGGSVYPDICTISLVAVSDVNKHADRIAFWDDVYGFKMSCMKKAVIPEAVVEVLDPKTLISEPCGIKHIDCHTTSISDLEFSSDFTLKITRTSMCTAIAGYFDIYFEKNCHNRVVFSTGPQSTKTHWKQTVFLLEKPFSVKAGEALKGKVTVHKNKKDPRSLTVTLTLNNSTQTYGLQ
Chain of Protein arginine N-methyltransferase 5 (O14744 whole entry): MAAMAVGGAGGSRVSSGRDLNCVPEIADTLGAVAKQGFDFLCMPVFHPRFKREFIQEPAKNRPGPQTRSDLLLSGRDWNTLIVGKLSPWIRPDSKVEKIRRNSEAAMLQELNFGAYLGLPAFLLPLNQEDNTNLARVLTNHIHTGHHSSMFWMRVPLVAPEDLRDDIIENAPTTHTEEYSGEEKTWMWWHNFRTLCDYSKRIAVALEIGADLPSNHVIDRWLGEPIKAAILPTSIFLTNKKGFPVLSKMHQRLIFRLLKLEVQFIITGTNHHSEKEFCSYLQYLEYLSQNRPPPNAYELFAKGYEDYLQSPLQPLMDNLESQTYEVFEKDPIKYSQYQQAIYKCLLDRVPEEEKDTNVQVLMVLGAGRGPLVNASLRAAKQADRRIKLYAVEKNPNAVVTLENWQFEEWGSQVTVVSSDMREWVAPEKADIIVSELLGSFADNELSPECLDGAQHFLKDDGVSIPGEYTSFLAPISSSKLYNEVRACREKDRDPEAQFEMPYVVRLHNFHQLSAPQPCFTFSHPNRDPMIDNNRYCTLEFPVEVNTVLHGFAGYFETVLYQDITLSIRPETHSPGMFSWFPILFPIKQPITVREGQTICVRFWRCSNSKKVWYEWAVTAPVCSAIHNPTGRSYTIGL

For orientation: pIC50 means the IC50 on a negative log10 scale, so that one unit is a factor of ten. The term half-life denotes the time needed for the level to fall by half in the phase considered. Higher therefore signals slow loss. A word on the CLint scaled: it is the capacity of the preparation to metabolise the compound, expressed as a volume cleared per time. The low end stands for slow turnover, the high end for rapid turnover. What is called microsomal CLint is the rate of metabolic loss divided by the concentration. High values mean faster metabolism, low ones greater metabolic stability. On to `CNCCN(C)Cc1ccccc1OC1CCC(COC)(COC)CC1.Cl.Cl`, for which the “Ratio IC50” value in [1] is >10. The pIC50 was 5.53 in data set [2]; 7.92 in data set [4]; 6.31 in data set [5]; 8.15 in data set [6]; 7.62 in [9]; 7.25 in data set [10]. In addition, the pIC50 in data set [11] is < 4.00. In data set [3], this compound came in with a half-life of 0.76 h. The same compound displayed a CLint scaled in data set [7] of 120 mL/min/kg. The microsomal CLint in [8] was determined as 30.4 µL/min/mg.

Turning to `CCOCC1(COCC)CCC(Oc2ccccc2CN(C)C[C@@H](O)CNC)CC1`, the Activity in data set [12] is on record as 0.87%; in data set [13], 1.32%; in data set [14] it was 1.52%; in [15], 1.3%; in [16], 1.09%; in [17], 1.83%. Further, the Activity is 2.14% in [18] and 2.13% in [19]. The “Ratio IC50” value in data set [1] was >10. Also, the negative-log IC50 (pIC50) in data set [2] is 5.50; in data set [4] it was 8.00; in data set [5] it was 5.58; in data set [6] it was 8.05; in data set [9], 7.51; in [10], 7.25. The pIC50 in [11] is < 4.00. Also, the half-life in data set [3] worked out at 3.62 h. The CLint scaled in data set [7] is 25.3 mL/min/kg. Moreover, the microsomal CLint in [8] came out at 6.4 µL/min/mg.

Consider `CCOCC1(COCC)CCC(c2n[nH]cc2CN(C)CCNC)CC1`, for which the pIC50 in data set [2] was 4.42; in data set [20], 8.77; in data set [21], 8.77; in data set [6], 7.92; in [22], 8.77.

In [23], `CNCCN1CCC(c2ccc3c(F)c(-c4ccccc4OC)[nH]c3c2)CC1` had a pIC50 of 7.52.

With `CCOCC1(COCC)CCC(Oc2ccccc2CN(C)C[C@H](O)CNC)CC1`, the values for the pIC50 in [6] and in data set [10] were 7.43 and 6.55, respectively.
